Values after ≈ are worked out from the molar mass of the structure shown.
Key:
RAW264.7 [1] = experiment: Anti-inflammatory activity in LPS-induced mouse RAW264.7 cells assessed as inhibition of TNF-alpha production at 10 uM incubated for 24 hrs by qRT-PCR analysis relative to control; type: functional; design: scale not given: the % may be the effect or the level left
RAW264.7 [2] = experiment: Anti-inflammatory activity in LPS-induced mouse RAW264.7 cells assessed as inhibition of IL-6 production at 10 uM incubated for 24 hrs by qRT-PCR analysis relative to control; type: functional; design: scale not given: the % may be the effect or the level left
HeLa = experiment: cells; conditions: Homo sapiens, 96 h
Description: Anticancer activity against human HeLa cells assessed as inhibition of cell growth incubated for 96 hrs by MTT assay

KB = experiment: Antitumor activity against human KB cells assessed as reduction in cell growth incubated for 96 hrs by MTT assay; type: functional, cell-based

Structure (SMILES) | Activity (RAW264.7 [1]) | Activity (RAW264.7 [2]) | also measured
NC(=O)Nc1sc(-c2ccc(F)cc2)cc1C(N)=O | 20% | – | –
CC(C)Cc1ccc(C(C)C(=O)O)cc1 (stereo unspecified) [IBUPROFEN] | 90% | – | –
CN(Cc1cnc2nc(N)nc(N)c2n1)c1ccc(C(=O)N[C@@H](CCC(=O)O)C(=O)O)cc1 [METHOTREXATE] | – | 78.5% | –
COc1ccc2cc([C@H](C)C(=O)O)ccc2c1 [NAPROXEN] | – | 65% | –
CC(=O)O[C@H]1C(=O)[C@@]2(C)[C@H]([C@H](OC(=O)c3ccccc3)[C@]3(O)C[C@H](OC(=O)[C@H](O)[C@@H](NC(=O)c4ccccc4)c4ccccc4)C(C)=C1C3(C)C)[C@]1(OC(C)=O)CO[C@@H]1C[C@@H]2O [PACLITAXEL] | – | – | IC50 (HeLa): 0.9 µg/mL (≈ 1.05 µM); IC50 (KB): 0.18 µg/mL (≈ 0.211 µM)

From ChEMBL document CHEMBL6127022, “Acid-sensitive prodrugs; a promising approach for site-specific and targeted drug release” (Eur J Med Chem, 2024)
